According to paper PMC5218480 (PLoS ONE, 2017):

System: MV-4-11 cells
Test: Gene expression microarray analysis (Affymetrix PrimeView) and GSEA
Format: cell-based, human
Parameters: RFU PODN (11730768_x_at) / Fold change /veh PODN (11730768_x_at) / RFU LINC00158 (11744669_a_at) / Fold change /veh LINC00158 (11744669_a_at) / RFU DUSP10 (11751237_a_at) / Fold change /veh DUSP10 (11751237_a_at) / RFU ID3 (11757404_x_at) / Fold change /veh ID3 (11757404_x_at) / RFU PLEKHG5 (11737974_s_at) / Fold change /veh PLEKHG5 (11737974_s_at) / RFU LRRC4B (11730491_at) / Fold change /veh LRRC4B (11730491_at) / RFU GIMAP4 (11747438_a_at) / Fold change /veh GIMAP4 (11747438_a_at) / RFU KRT8 (11758183_x_at) / Fold change /veh KRT8 (11758183_x_at) / RFU CNN1 (11734310_a_at) / Fold change /veh CNN1 (11734310_a_at) / RFU VPS37D (11726825_at) / Fold change /veh VPS37D (11726825_at) / RFU C10orf10 (11716522_x_at) / Fold change /veh C10orf10 (11716522_x_at) / RFU KIR2DL2 /// KIR2DL4 /// KIR2DL5A /// KIR2DL5B /// KIR2DS1 /// KIR2DS2 /// KIR2DS3 /// KIR2DS4 /// KIR3DL3 /// KIR3DL3 /// KIR3DS1 (11738374_at) / Fold change /veh KIR2DL2 /// KIR2DL4 /// KIR2DL5A /// KIR2DL5B /// KIR2DS1 /// KIR2DS2 /// KIR2DS3 /// KIR2DS4 /// KIR3DL3 /// KIR3DL3 /// KIR3DS1 (11738374_at) / RFU C1QL1 (11718748_at) / Fold change /veh C1QL1 (11718748_at) / RFU TMPRSS4 (11747572_a_at) / Fold change /veh TMPRSS4 (11747572_a_at) / RFU HAMP (11756126_x_at) / Fold change /veh HAMP (11756126_x_at) / RFU RNFT2 (11725882_a_at) / Fold change /veh RNFT2 (11725882_a_at) / RFU NR4A2 (11747474_a_at) / Fold change /veh NR4A2 (11747474_a_at) / RFU ABCC12 (11746883_a_at) / Fold change /veh ABCC12 (11746883_a_at) / RFU TMEM136 (11760407_x_at) / Fold change /veh TMEM136 (11760407_x_at) / RFU CLDN22 /// WWC2 (11732394_at) / Fold change /veh CLDN22 /// WWC2 (11732394_at) / RFU HLA-DPB1 (11760878_x_at) / Fold change /veh HLA-DPB1 (11760878_x_at) / RFU SPINT1 (11716480_a_at) / Fold change /veh SPINT1 (11716480_a_at) / RFU GAP43 (11754022_s_at) / Fold change /veh GAP43 (11754022_s_at) / RFU A4GNT (11735810_at) / Fold change /veh A4GNT (11735810_at) / RFU PRB3 (11715151_x_at) / Fold change /veh PRB3 (11715151_x_at) / RFU TUBB4B (11761932_at) / Fold change /veh TUBB4B (11761932_at) / RFU CAPN14 (11732068_a_at) / Fold change /veh CAPN14 (11732068_a_at) / RFU TMCC2 (11721928_a_at) / Fold change /veh TMCC2 (11721928_a_at) / RFU IRGQ (11745062_a_at) / Fold change /veh IRGQ (11745062_a_at) / RFU FAM174B (11720279_a_at) / Fold change /veh FAM174B (11720279_a_at) / RFU TMPRSS4 (11748680_a_at) / Fold change /veh TMPRSS4 (11748680_a_at) / RFU FAM212B (11763350_a_at) / Fold change /veh FAM212B (11763350_a_at) / RFU PLEKHG5 (11743358_a_at) / Fold change /veh PLEKHG5 (11743358_a_at) / RFU ZSCAN30 (11745921_a_at) / Fold change /veh ZSCAN30 (11745921_a_at) / RFU CMKLR1 (11741424_a_at) / Fold change /veh CMKLR1 (11741424_a_at) / RFU LOC101060620 /// MAPK8IP1 (11723275_at) / Fold change /veh LOC101060620 /// MAPK8IP1 (11723275_at) / RFU SPTSSB (11747773_x_at) / Fold change /veh SPTSSB (11747773_x_at) / RFU PRSS12 (11739890_at) / Fold change /veh PRSS12 (11739890_at) / RFU BIN1 (11741810_x_at) / Fold change /veh BIN1 (11741810_x_at) / RFU WNT11 (11732464_a_at) / Fold change /veh WNT11 (11732464_a_at) / RFU C10orf10 (11716521_a_at) / Fold change /veh C10orf10 (11716521_a_at) / RFU C5orf56 (11738089_at) / Fold change /veh C5orf56 (11738089_at) / RFU CYB561 (11721691_x_at) / Fold change /veh CYB561 (11721691_x_at) / RFU ANKRD19P (11752326_a_at) / Fold change /veh ANKRD19P (11752326_a_at) / RFU OR2T12 /// OR2T33 /// OR2T8 (11738714_s_at) / Fold change /veh OR2T12 /// OR2T33 /// OR2T8 (11738714_s_at) / RFU VCAN (11748164_a_at) / Fold change /veh VCAN (11748164_a_at) / RFU JSRP1 (11732532_at) / Fold change /veh JSRP1 (11732532_at) / RFU KRTAP10-11 (11738290_x_at) / Fold change /veh KRTAP10-11 (11738290_x_at) / RFU MYO3A (11730013_a_at) / Fold change /veh MYO3A (11730013_a_at) / RFU EBF3 (11725865_a_at) / Fold change /veh EBF3 (11725865_a_at) / RFU CAMK2N1 (11719241_x_at) / Fold change /veh CAMK2N1 (11719241_x_at) / RFU C5orf56 (11738088_a_at) / Fold change /veh C5orf56 (11738088_a_at) / RFU OLFML3 (11715873_a_at) / Fold change /veh OLFML3 (11715873_a_at) / RFU LOC100653217 /// NTM (11731650_a_at) / Fold change /veh LOC100653217 /// NTM (11731650_a_at) / RFU MAPK11 (11762145_a_at) / Fold change /veh MAPK11 (11762145_a_at) / RFU FIZ1 (11724087_x_at) / Fold change /veh FIZ1 (11724087_x_at) / RFU OASL (11726364_x_at) / Fold change /veh OASL (11726364_x_at) / RFU SOX15 (11748057_x_at) / Fold change /veh SOX15 (11748057_x_at) / RFU CD79A (11719716_a_at) / Fold change /veh CD79A (11719716_a_at) / RFU HIST1H1D (11736915_at) / Fold change /veh HIST1H1D (11736915_at) / RFU CASKIN2 (11723855_a_at) / Fold change /veh CASKIN2 (11723855_a_at) / RFU LOC730098 (11760151_x_at) / Fold change /veh LOC730098 (11760151_x_at) / RFU OR4N2 (11742367_at) / Fold change /veh OR4N2 (11742367_at) / RFU PRRT2 (11749266_a_at) / Fold change /veh PRRT2 (11749266_a_at) / RFU SNX32 (11753110_a_at) / Fold change /veh SNX32 (11753110_a_at) / RFU CDHR5 (11726645_a_at) / Fold change /veh CDHR5 (11726645_a_at) / RFU RCAN1 (11760418_a_at) / Fold change /veh RCAN1 (11760418_a_at) / RFU FAM167A (11723789_a_at) / Fold change /veh FAM167A (11723789_a_at) / RFU FAM26E (11764081_at) / Fold change /veh FAM26E (11764081_at) / RFU ISYNA1 (11749810_s_at) / Fold change /veh ISYNA1 (11749810_s_at) / RFU ACY1 (11761880_at) / Fold change /veh ACY1 (11761880_at) / RFU 11764098_at / Fold change /veh 11764098_at / RFU SAMD14 (11745864_x_at) / Fold change /veh SAMD14 (11745864_x_at) / RFU NPB (11741838_a_at) / Fold change /veh NPB (11741838_a_at) / RFU TMPRSS6 (11731388_a_at) / Fold change /veh TMPRSS6 (11731388_a_at) / RFU KRTAP10-2 (11738614_at) / Fold change /veh KRTAP10-2 (11738614_at) / RFU ARHGAP8 /// PRR5-ARHGAP8 (11727945_x_at) / Fold change /veh ARHGAP8 /// PRR5-ARHGAP8 (11727945_x_at) / RFU KRTAP5-7 /// NADSYN1 (11734609_at) / Fold change /veh KRTAP5-7 /// NADSYN1 (11734609_at) / RFU RASL12 (11751679_a_at) / Fold change /veh RASL12 (11751679_a_at) / RFU CDKN2B (11736163_a_at) / Fold change /veh CDKN2B (11736163_a_at) / RFU PRF1 (11729649_at) / Fold change /veh PRF1 (11729649_at) / RFU, ZNF638 /// ZNF638-IT1 / Fold change vs veh, ZNF638 /// ZNF638-IT1 / RFU, PANK3 / Fold change vs veh, PANK3 / RFU, SH3YL1 / Fold change vs veh, SH3YL1 / RFU, ZEB2 / Fold change vs veh, ZEB2 / RFU, NRIP1 / Fold change vs veh, NRIP1 / RFU, PTTG1IP / Fold change vs veh, PTTG1IP / RFU, CAPN2 / Fold change vs veh, CAPN2 / RFU, MED14 / Fold change vs veh, MED14 / RFU, SNORA58 / Fold change vs veh, SNORA58 / RFU, C1orf63 / Fold change vs veh, C1orf63 / RFU, LRRFIP1 / Fold change vs veh, LRRFIP1 / RFU, NDUFAF7 / Fold change vs veh, NDUFAF7 / RFU, SLC12A2 / Fold change vs veh, SLC12A2 / RFU, IBTK / Fold change vs veh, IBTK / RFU, ESF1 / Fold change vs veh, ESF1 / Fold change vs veh, TMEM50B / RFU, TAOK1 / Fold change vs veh, TAOK1 / RFU, ACBD3 / Fold change vs veh, ACBD3 / RFU, TMA16 / Fold change vs veh, TMA16 / RFU, RWDD3 / Fold change vs veh, RWDD3 / RFU, BCAT1 / Fold change vs veh, BCAT1 / RFU, EDEM3 / Fold change vs veh, EDEM3 / RFU, TMEM33 / Fold change vs veh, TMEM33 / RFU, WDR75 / Fold change vs veh, WDR75 / RFU, AHCTF1 / Fold change vs veh, AHCTF1 / RFU, TFRC / Fold change vs veh, TFRC / RFU, ZDHHC17 / Fold change vs veh, ZDHHC17 / RFU, NOM1 / Fold change vs veh, NOM1 / RFU, ARL8B / Fold change vs veh, ARL8B / RFU, ZBTB11 / Fold change vs veh, ZBTB11 / RFU, TAMM41 / Fold change vs veh, TAMM41 / RFU, KIAA1704 /// LOC100996395 / Fold change vs veh, KIAA1704 /// LOC100996395 / RFU, ING1 / Fold change vs veh, ING1 / RFU, TRMT61B / Fold change vs veh, TRMT61B / RFU, FUBP3 / Fold change vs veh, FUBP3 / RFU, TP53 / Fold change vs veh, TP53 / RFU, TNKS2 / Fold change vs veh, TNKS2 / RFU, ZFP14 / Fold change vs veh, ZFP14 / RFU, ACTR2 / Fold change vs veh, ACTR2 / RFU, PPP3R1 / Fold change vs veh, PPP3R1 / RFU, PIK3R1 / Fold change vs veh, PIK3R1 / RFU, HNRNPA1 / Fold change vs veh, HNRNPA1 / RFU, RNF170 / Fold change vs veh, RNF170 / RFU, ZNF28 / Fold change vs veh, ZNF28 / RFU, RNGTT / Fold change vs veh, RNGTT / RFU, OGT / Fold change vs veh, OGT / RFU, BRD1 / Fold change vs veh, BRD1 / RFU, MARS / Fold change vs veh, MARS / RFU, ZNF655 / Fold change vs veh, ZNF655 / RFU, FAHD1 / Fold change vs veh, FAHD1 / RFU, BDP1 / Fold change vs veh, BDP1 / RFU, LRRCC1 / Fold change vs veh, LRRCC1 / RFU, ARID1A / Fold change vs veh, ARID1A / RFU, ZNF146 / Fold change vs veh, ZNF146 / RFU, ZNF330 / Fold change vs veh, ZNF330 / RFU, GPN3 / Fold change vs veh, GPN3 / RFU, C9orf123 / Fold change vs veh, C9orf123 / RFU, N4BP2L2 / Fold change vs veh, N4BP2L2 / RFU, ARFIP1 / Fold change vs veh, ARFIP1 / RFU, FAM179B / Fold change vs veh, FAM179B / RFU, BCL10 / Fold change vs veh, BCL10 / RFU, UHRF1BP1L / Fold change vs veh, UHRF1BP1L / RFU, BET1 / Fold change vs veh, BET1 / RFU, CNOT2 / Fold change vs veh, CNOT2 / RFU, ZNF268 / Fold change vs veh, ZNF268 / Fold change vs veh, ZNF507 / RFU, DGCR2 / Fold change vs veh, DGCR2 / RFU, WDSUB1 / Fold change vs veh, WDSUB1 / Fold change vs veh, HSP90B1 /// MIR3652 / RFU, ADSS / Fold change vs veh, ADSS / RFU, GK / Fold change vs veh, GK / RFU, ZNF148 / Fold change vs veh, ZNF148 / RFU, TAF9 / Fold change vs veh, TAF9 / RFU, SLC1A5 / Fold change vs veh, SLC1A5 / RFU, SLMO2 / Fold change vs veh, SLMO2 / RFU, ABCC4 / Fold change vs veh, ABCC4 / RFU, LOC101060439 /// RAP1B / Fold change vs veh, LOC101060439 /// RAP1B / RFU, RFX7 / Fold change vs veh, RFX7 / RFU, GTPBP10 / Fold change vs veh, GTPBP10 / RFU, CNEP1R1 / Fold change vs veh, CNEP1R1 / RFU, BIVM-ERCC5 /// ERCC5 / Fold change vs veh, BIVM-ERCC5 /// ERCC5 / RFU, ILF3 / Fold change vs veh, ILF3 / RFU 11762660_at / Fold change /veh 11762660_at / RFU VCAN (11757783_s_at) / Fold change /veh VCAN (11757783_s_at) / RFU DDX43 (11728927_at) / Fold change /veh DDX43 (11728927_at) / RFU KRT8 (11758188_x_at) / Fold change /veh KRT8 (11758188_x_at) / RFU NKD1 (11759106_at) / Fold change /veh NKD1 (11759106_at) / RFU SRD5A1 (11742802_a_at) / Fold change /veh SRD5A1 (11742802_a_at) / RFU TPSAB1 /// TPSB2 (11721975_s_at) / Fold change /veh TPSAB1 /// TPSB2 (11721975_s_at) / RFU GSTM3 (11746129_a_at) / Fold change /veh GSTM3 (11746129_a_at) / RFU IL23R (11737362_x_at) / Fold change /veh IL23R (11737362_x_at) / RFU TMEM51 (11727254_a_at) / Fold change /veh TMEM51 (11727254_a_at) / RFU PIWIL2 (11732686_x_at) / Fold change /veh PIWIL2 (11732686_x_at) / RFU ORM1 (11744905_x_at) / Fold change /veh ORM1 (11744905_x_at) / RFU CCDC152 (11743942_at) / Fold change /veh CCDC152 (11743942_at) / RFU ECM1 (11717891_a_at) / Fold change /veh ECM1 (11717891_a_at) / RFU IL23R (11748794_a_at) / Fold change /veh IL23R (11748794_a_at) / RFU TNFAIP8L3 (11732012_x_at) / Fold change /veh TNFAIP8L3 (11732012_x_at) / RFU MBOAT4 (11741988_at) / Fold change /veh MBOAT4 (11741988_at) / RFU 11764193_at / Fold change /veh 11764193_at / RFU TMEM53 (11763286_at) / Fold change /veh TMEM53 (11763286_at) / RFU MAGEB2 (11727129_at) / Fold change /veh MAGEB2 (11727129_at) / RFU TMEM200A (11744735_a_at) / Fold change /veh TMEM200A (11744735_a_at) / RFU CCDC152 (11751479_a_at) / Fold change /veh CCDC152 (11751479_a_at) / RFU FAM211A (11726209_a_at) / Fold change /veh FAM211A (11726209_a_at) / RFU RGS16 (11746705_a_at) / Fold change /veh RGS16 (11746705_a_at) / RFU VCAN (11755009_s_at) / Fold change /veh VCAN (11755009_s_at) / RFU RHOB (11743442_s_at) / Fold change /veh RHOB (11743442_s_at) / RFU RGS16 (11720943_a_at) / Fold change /veh RGS16 (11720943_a_at) / RFU RGS16 (11720944_at) / Fold change /veh RGS16 (11720944_at) / RFU, VPS4B / Fold change vs veh, VPS4B / RFU, CREB1 / Fold change vs veh, CREB1 / RFU, DNAJC13 / Fold change vs veh, DNAJC13 / RFU, GNAQ / Fold change vs veh, GNAQ / RFU, CDK5R1 / Fold change vs veh, CDK5R1 / RFU, ZRANB3 / Fold change vs veh, ZRANB3 / RFU, CUL4A / Fold change vs veh, CUL4A / RFU, CCNY / Fold change vs veh, CCNY / RFU, UFL1 / Fold change vs veh, UFL1 / RFU, COG3 / Fold change vs veh, COG3 / RFU, DIAPH2 / Fold change vs veh, DIAPH2 / RFU, SKA2 / Fold change vs veh, SKA2 / RFU, AFF3 / Fold change vs veh, AFF3 / RFU, LMF1 / Fold change vs veh, LMF1 / RFU, IPO11 / Fold change vs veh, IPO11 / RFU, DFFB / Fold change vs veh, DFFB / RFU, FOXP1 / Fold change vs veh, FOXP1 / RFU, CARD8 / Fold change vs veh, CARD8 / RFU, STRN3 / Fold change vs veh, STRN3 / RFU, ADK / Fold change vs veh, ADK / RFU, RASSF2 / Fold change vs veh, RASSF2 / RFU, WIPF1 / Fold change vs veh, WIPF1 / RFU, LARP1B / Fold change vs veh, LARP1B / RFU, RASA1 / Fold change vs veh, RASA1 / RFU, RB1 / Fold change vs veh, RB1 / RFU, PPFIA1 / Fold change vs veh, PPFIA1 / RFU, MAT2A / Fold change vs veh, MAT2A / RFU, CCT5 / Fold change vs veh, CCT5 / RFU, WDR92 / Fold change vs veh, WDR92 / RFU, CUX1 / Fold change vs veh, CUX1 / RFU, TTC7A / Fold change vs veh, TTC7A / RFU, TMEM135 / Fold change vs veh, TMEM135 / RFU, DEPTOR / Fold change vs veh, DEPTOR / RFU, CPM / Fold change vs veh, CPM / RFU, DNAJB6 / Fold change vs veh, DNAJB6 / RFU, CACNA2D3 / Fold change vs veh, CACNA2D3 / RFU, DTX4 / Fold change vs veh, DTX4 / RFU, TFCP2 / Fold change vs veh, TFCP2 / RFU, GMCL1 /// GMCL1P1 / Fold change vs veh, GMCL1 /// GMCL1P1 / RFU, AEBP2 / Fold change vs veh, AEBP2 / RFU, SNHG1 /// SNORD22 /// SNORD25 /// SNORD26 /// SNORD27 /// SNORD28 /// SNORD29 /// SNORD31 / Fold change vs veh, SNHG1 /// SNORD22 /// SNORD25 /// SNORD26 /// SNORD27 /// SNORD28 /// SNORD29 /// SNORD31 / Fold change (Aza/veh), C12orf56 (ProbeSet 11735607_a_at) / Fold change (ACY-1035/veh), C12orf56 (ProbeSet 11735607_a_at) / Fold change (Aza/veh), FGFR1OP (ProbeSet 11751329_s_at) / Fold change (ACY-1035/veh), FGFR1OP (ProbeSet 11751329_s_at) / Fold change (Aza/veh), VPS36 (ProbeSet 11739960_a_at) / Fold change (ACY-1035/veh), VPS36 (ProbeSet 11739960_a_at) / RFU SYPL1 (11715823_x_at) / Fold change /veh SYPL1 (11715823_x_at) / RFU IGFBP7 (11715501_s_at) / Fold change /veh IGFBP7 (11715501_s_at) / RFU REEP3 (11722064_at) / Fold change /veh REEP3 (11722064_at) / RFU IGLL1 (11728026_x_at) / Fold change /veh IGLL1 (11728026_x_at): dose or concentration left out as unconfirmed
Conditions: MV-4-11 cells, 48 hours

## Nc1ccc(-c2cccs2)cc1NC(=O)c1ccc2c(c1)cc(C1CC1)n2CCN1CCOCC1 [ACY-1035]
  RFU KRT8 (11758188_x_at): 20.03 RFU
